In US20240051931A1, “HDAC INHIBITORS” (University of Pittsburgh - Of the Commonwealth System of …, priority 2020, published 2024):

Tests used:
[1] = system: PanHDAC; experiment: PanHDAC activity at fixed concentration (Table 2); format: biochemical; set-up: unit not given here; settings: compound at 1 uM
[2] = target: T1, HDAC 6 (Homo sapiens, UniProt Q9UBN7); experiment: HDAC 6 activity at fixed concentration (Table 2); format: biochemical; set-up: unit not given here; settings: compound at 50 nM
T1 sequence (Q9UBN7 1-1215): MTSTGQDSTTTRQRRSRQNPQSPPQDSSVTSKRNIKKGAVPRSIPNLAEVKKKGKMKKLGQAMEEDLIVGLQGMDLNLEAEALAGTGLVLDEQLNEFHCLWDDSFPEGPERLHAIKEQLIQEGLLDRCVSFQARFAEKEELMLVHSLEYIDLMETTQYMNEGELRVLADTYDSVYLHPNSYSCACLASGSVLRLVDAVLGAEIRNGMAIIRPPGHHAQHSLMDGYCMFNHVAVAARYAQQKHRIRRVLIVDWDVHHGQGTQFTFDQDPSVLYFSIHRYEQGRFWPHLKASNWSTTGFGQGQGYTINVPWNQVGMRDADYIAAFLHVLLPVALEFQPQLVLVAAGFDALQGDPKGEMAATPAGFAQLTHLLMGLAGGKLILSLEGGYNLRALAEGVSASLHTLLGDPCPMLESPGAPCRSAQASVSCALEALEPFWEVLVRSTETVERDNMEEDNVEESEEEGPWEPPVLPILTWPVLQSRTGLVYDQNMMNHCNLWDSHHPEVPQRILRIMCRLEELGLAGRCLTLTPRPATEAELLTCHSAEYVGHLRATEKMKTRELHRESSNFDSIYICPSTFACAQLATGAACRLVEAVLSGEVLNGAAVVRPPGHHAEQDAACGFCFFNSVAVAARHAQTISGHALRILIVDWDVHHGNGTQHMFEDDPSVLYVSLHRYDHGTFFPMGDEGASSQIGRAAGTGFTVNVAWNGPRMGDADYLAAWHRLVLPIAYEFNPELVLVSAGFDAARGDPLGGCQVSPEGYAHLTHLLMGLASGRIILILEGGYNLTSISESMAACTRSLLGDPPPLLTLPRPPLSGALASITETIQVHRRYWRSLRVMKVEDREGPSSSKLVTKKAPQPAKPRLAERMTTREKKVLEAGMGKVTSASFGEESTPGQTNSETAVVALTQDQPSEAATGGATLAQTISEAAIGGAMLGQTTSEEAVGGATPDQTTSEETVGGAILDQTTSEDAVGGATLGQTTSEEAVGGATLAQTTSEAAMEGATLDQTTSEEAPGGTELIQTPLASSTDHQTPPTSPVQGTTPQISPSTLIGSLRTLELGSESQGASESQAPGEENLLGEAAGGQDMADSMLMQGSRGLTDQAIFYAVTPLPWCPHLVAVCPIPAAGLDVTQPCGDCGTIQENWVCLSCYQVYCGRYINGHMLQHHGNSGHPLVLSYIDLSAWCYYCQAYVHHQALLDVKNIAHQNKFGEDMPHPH

Row | SMILES | HDAC 6 at 50 nM [2] | PanHDAC at 1 uM [1]
1 | CO[C@@H]1C[C@@H](C(=O)NO)Oc2ccccc21 [Compound 1-29] | 37 | 0
2 | O=C(NO)C1CCc2ccc(OCc3ccc(C(F)(F)F)cc3)cc2O1 (stereo not shown) [Compound 1-20] | 32 | 0
3 | COc1ccc(COC(=O)Nc2ccc3c(c2)CCC(C(=O)NO)O3)cc1 (stereo not shown) [Compound 1-32] | 70 | 14
4 | O=C(NCc1ccc(Cl)c(C(F)(F)F)c1)Nc1ccc2c(c1)CCC(C(=O)NO)O2 (stereo not shown) [Compound 1-15] | 26 | 0
5 | O=C(NO)C1CCc2ccc(-c3ccc(Cl)c(Cl)c3)cc2O1 (stereo not shown) [Compound 1-54] | 39 | 0
6 | O=C(NO)C1CCc2ccc(OCc3ccc(Cl)cc3)cc2O1 (stereo not shown) [Compound 1-50] | 48 | 0
7 | O=C(Nc1ccc2c(c1)CC[C@@H](C(=O)NO)O2)c1cc(Cl)cc(Cl)c1 [Compound 1-26] | 20 | 0
8 | Cn1ccc2cc(-c3ccc4c(c3)CCC(C(=O)NO)O4)ccc21 (stereo not shown) [Compound 1-28] | 44 | 0
9 | Cc1ccc(COc2ccc3c(c2)OC(C(=O)NO)CC3)cc1 (stereo not shown) [Compound 1-44] | 29 | 0
10 | O=C(NO)C1CCc2ccc(O)cc2O1 (stereo not shown) [Compound 1-17] | 40 | 0
11 | O=C(NO)C1CCc2ccc(OCc3ccc(F)cc3)cc2O1 (stereo not shown) [Compound 1-48] | 0 | 0
12 | O=C(Nc1ccc(F)cc1)Nc1ccc2c(c1)CCC(C(=O)NO)O2 (stereo not shown) [Compound 1-46] | 48 | 0
13 | O=C(NO)[C@@H]1CCc2ccc(-c3ccc(Cl)c(Cl)c3)cc2O1 [Compound 1-61] | 41 | 0
14 | O=C(Nc1ccc2c(c1)CCC(C(=O)NO)O2)c1ccc(S(F)(F)(F)(F)F)cc1 (stereo not shown) [Compound 1-6] | 41 | 0
15 | O=C(NO)C1CCc2cc(C#CCCC(=O)N3CCc4ccccc4C3)ccc2O1 (stereo not shown) [Compound 1-19] | 27 | 0
16 | C#Cc1ccc2c(c1)CCC(C(=O)NO)O2 (stereo not shown) [Compound 1-11] | 25 | 3
17 | O=C(NO)C1CCc2cc(CCCOC(=O)N3CCc4ccccc4C3)ccc2O1 (stereo not shown) [Compound 1-16] | 73 | 0
18 | O=C(NO)C1CCc2cc(-c3ccc(Cl)c(Cl)c3)ccc2O1 (stereo not shown) [Compound 1-21] | 73 | 0
19 | O=C(NO)[C@H]1CCc2ccc(OCc3ccc(Cl)cc3)cc2O1 [Compound 1-58] | 31 | 0
20 | O=C(NO)[C@@H]1CCc2ccc(-c3ccc(F)c(Cl)c3)cc2O1 [Compound 1-64] | 47 | 3
21 | O=C(NCc1cccc(S(F)(F)(F)(F)F)c1)Nc1ccc2c(c1)CCC(C(=O)NO)O2 (stereo not shown) [Compound 1-43] | 34 | 0

More lines, main results first:

Row | HDAC 6 at 50 nM [2] | SMILES | PanHDAC at 1 uM [1]
22 | 33 | COc1cccc(COC(=O)Nc2cccc3c2O[C@H](C(=O)NO)CC3)c1 [Compound 1-60] | 0
23 | 32 | O=C(Nc1ccc2c(c1)CCC(C(=O)NO)O2)OCc1ccccc1Cl (stereo not shown) [Compound 1-33] | 0
24 | 21 | Cc1ccc(S(=O)(=O)Nc2cccc3c2OC(C(=O)NO)CC3)cc1 (stereo not shown) [Compound 1-38] | 0
25 | 50 | O=C(NO)C1CCc2cc(-c3ccc(-c4ccccc4)cc3)ccc2O1 (stereo not shown) [Compound 1-23] | 0
26 | 25 | O=C(COc1ccccc1Cl)Nc1cccc2c1O[C@H](C(=O)NO)CC2 [Compound 1-53] | 0
27 | 50 | O=C(Nc1ccc2c(c1)CCC(C(=O)NO)O2)OCc1ccccc1 (stereo not shown) [Compound 1-9] | 0
28 | 0 | O=C(NO)C1CCc2cc(NS(=O)(=O)c3cc(Cl)cc(Cl)c3)ccc2O1 (stereo not shown) [Compound 1-14] | 21
29 | 29 | COc1ccc(C(=O)Nc2ccc3c(c2)CCC(C(=O)NO)O3)cc1 (stereo not shown) [Compound 1-5] | 0
30 | 28 | O=C(NCc1ccccc1)Nc1cccc2c1OC(C(=O)NO)CC2 (stereo not shown) [Compound 1-12] | 0
31 | 17 | O=C(NO)[C@@H]1CCc2ccc(OCc3ccccc3Cl)cc2O1 [Compound 1-65] | 0
32 | 0 | O=C(NO)C1CCc2cccc(NS(=O)(=O)c3cccc4ccccc34)c2O1 (stereo not shown) [Compound 1-35] | 0
33 | 44 | Cn1ccc2cc(-c3ccc4c(c3)OC(C(=O)NO)CC4)ccc21 (stereo not shown) [Compound 1-55] | 0
34 | 13 | O=C(Nc1cccc2c1O[C@@H](C(=O)NO)CC2)OCc1ccccc1Cl [Compound 1-34] | 0
35 | 0 | O=C(COc1ccc(Cl)c(Cl)c1)Nc1cccc2c1OC(C(=O)NO)CC2 (stereo not shown) [Compound 1-45] | 0
36 | 14 | O=C(Nc1cccc2c1OC(C(=O)NO)CC2)OCc1ccc(C(F)(F)F)cc1 (stereo not shown) [Compound 1-42] | 0
37 | 53 | COc1ccccc1COc1ccc2c(c1)OC(C(=O)NO)CC2 (stereo not shown) [Compound 1-47] | 0
38 | 41 | O=C(NO)C1CCc2cccc(NS(=O)(=O)CC(F)(F)F)c2O1 (stereo not shown) [Compound 1-31] | 0
39 | 5 | O=C(NO)C1CCc2cccc(NS(=O)(=O)c3ccc(F)cc3)c2O1 (stereo not shown) [Compound 1-2] | 0
40 | 47 | O=C(NO)[C@H]1CCc2ccccc2O1 [Compound 1-4] | 0
41 | 64 | O=C(NO)C1CCc2cc(NS(=O)(=O)c3cccc4ccccc34)ccc2O1 (stereo not shown) [Compound 1-51] | 8
42 | 2 | CS(=O)(=O)Nc1cccc2c1OC(C(=O)NO)CC2 (stereo not shown) [Compound 1-37] | 6
43 | 45 | O=C(Nc1cccc2c1O[C@H](C(=O)NO)CC2)OCc1ccc(Cl)c(Cl)c1 [Compound 1-63] | 0
44 | 23 | O=C(Nc1cccc2c1OC(C(=O)NO)CC2)OCc1ccccc1Cl (stereo not shown) [Compound 1-13] | 0
45 | 32 | O=C(Nc1cccc2c1O[C@H](C(=O)NO)CC2)OCc1ccc(Cl)cc1 [Compound 1-62] | 0
46 | 0 | O=C(NO)C1CCc2ccc(OCCc3ccccc3)cc2O1 (stereo not shown) [Compound 1-49] | 0
47 | 31 | COc1ccccc1COC(=O)Nc1cccc2c1O[C@H](C(=O)NO)CC2 [Compound 1-66] | 0
48 | 46 | O=C(NO)[C@@H]1CCc2ccccc2O1 [Compound 1-3] | 0
49 | 13 | COc1ccc(-c2ccc3c(c2)OC(C(=O)NO)CC3)cc1 (stereo not shown) [Compound 1-56] | 0
50 | 68 | O=C(NO)C1CCc2cc(-c3ccc(F)cc3)ccc2O1 (stereo not shown) [Compound 1-18] | 0
